“Also recorded” adds a separate entry of the source. Read-outs that look alike come from different tables or passages of the source.
Tests used:
[1] = system: human renal cancer cells (SN12C); test: Detection of renal cancer cells in blood by NIR imaging and flow cytometry; format: cell-based; details: SN12C cells spiked into whole blood; 20 μM IR-783
Description: Citrated whole mouse blood samples were collected from same inbred athymic nude mice. A known number of human renal cancer cells (SN12C) were added into 3 ml whole mouse blood, and mixed gently with 20 μM IR-783 and incubated for 30 minutes at 37° C. The mononuclear cells and cancer cells were recovered by gradient centrifugation using Histopaque-1077 (Sigma, St. Louis, Mo.) and then diluted with 0.5 ml of 1% paraformaldehyde to inhibit further activation. A sample incubated with PBS served as negative isotype control. The isolated live cells were observed under a Leica TCS SP confocal microscope (Leica Microsystems, Heidelberg, Germany) and samples were excited with 670 nm. All samples were analyzed within 1 hrs of collection in a Becton Dickinson LSRII flow cytometer (Becton Dickinson Biosciences, San Jose, Calif.) with a red laser diode (640 nm) for excitation and cy7 detector for detection and with LYSIS II software.

[2] = system: mouse pancreatic cancer cell lines (PDAC2.3, PDAC3.3, BTC3 and BTC4); test: Uptake of NIR dyes by mouse pancreatic cancer cell lines; format: cell-based; details: PDAC2.3, PDAC3.3, BTC3, BTC4; 20 μM dye
P69 cells = test: Live-cell kinetics of dye uptake in normal prostate epithelial cells; format: cell-based, human
Description: (§1) Cells were plated on live-cell imaging chambers (World Precision Instrument, Sarasota, Fla.) overnight. Cells were exposed to cyanine dyes at different concentrations and dye uptake was evaluated by a Perkin-Elmer Ultraview ERS spinning disc confocal microscope. This system was mounted on a Zeiss Axiovert 200m inverted microscope equipped with a 37° C. stage warmer, incubator, and constant CO2 perfusion. A 63× or 100× Zeiss oil objective (numerical aperture, 1.4) was used for live cell images and a Z-stack was created using the attached piezoelectric z-stepper motor. The 633 nm laser line of an argon ion laser (set at 60% power) was used to excite the cyanine dyes. […] For comparative studies, the exposure time and laser intensity were kept identical for accurate intensity measurements. Pixel intensity was quantified using Metamorph 6.1 (Universal Imaging, Downingtown, Pa.) and the mean pixel intensity was generated as grey level using the Region Statistics feature on the software (23). To determine the dye uptake by the mitochondria, the mitochondrial tracking dye Mito Tracker Orange CMTMROS (Molecular Probes, Carlsbad, Calif.) was used. To determine the dye localization in lysosomes, a lysosome tracking dye, Lyso Tracker Green DND-26 (Molecular Probes, Carlsbad, Calif.), was selected. Imaging of mitochondrial and/or lysosome localization of the cyanine dye was conducted under confocal microscopy (24).
To determine if the cyanine dye uptake and accumulation in cancer cells was dependent upon OATPs, cells were preincubated with 250 μM bromosulfophthalein (BSP), a competitive inhibitor of organic anion transporting peptides (OATPs) (25), for 5 minutes prior to incubating the cells with cyanine dyes. The uptake and accumulation of cyanine dyes in the presence and absence of BSP were conducted in the stage warmer incubator for a period of 35 minutes. The levels of cyanine dye taken up and accumulated in normal prostate (P69) and prostate cancer (ARCaPM) cells were determined and compared on a real-time basis.

renal cancer cells = test: Subcellular co-localization in renal cancer cells; format: cell-based, human; details: Mito tracker and Lyso tracker overlay
Description: To determine the dye uptake by the mitochondria, the mitochondrial tracking dye, Mito Tracker Orange CMTMROS (Molecular Probes, Carlsbad, Calif.), was used. To determine the dye localization in lysosomes, a lysosome tracking dye, Lyso Tracker Green DND-26 (Molecular Probes, Carlsbad, Calif.), was selected. Images of mitochondrial and/or lysosome localization of the cyanine dye were merged and evidence of co-localization of the cyanine dye and tracking dyes were assessed by confocal imaging using a previously established protocol.^69

human cancer cells = test: Uptake of NIR dyes by cultured human cancer cell lines (confocal NIR imaging); format: cell-based
Description: (§2) Cells (1×10^4/well) were seeded on vitronectin-coated four-well chamber slides (Nalgen Nunc, Naperville, Ill.) and incubated with T-medium containing 5% FBS for 24 h. After the cells had attached to the chamber slides, the cells were washed with PBS (Phosphate Buffered Saline) and exposed to the cyanine dye at a concentration of 20 μM in T-medium. The slides were incubated at 37° C. for 30 min, washed twice with PBS to remove excess dyes, and cells were fixed with 10% formaldehyde at 4° C. The slides were then washed twice with PBS and covered with glass coverslips with an aqueous mounting medium (Sigma-Aldrich, St. Louis, Mo.). Images were recorded by confocal laser microscopy (Zeiss LSM 510 META, Germany) using a 633 nm excitation laser and 670-810 nm long pass filter, or a fluorescence microscope (Olympus 1×71; Olympus, Melville, N.Y.) equipped with a 75 W Xenon lamp and an Indo-Cyanine Green filter cube (excitation 750-800 nm; emission 820-860 nm) (Chroma, Rockingham, Vt.).
(§3) Cells (1×10^4/well) were seeded on vitronectin-coated four-well chamber slides (Nalgen Nunc, Naperville, Ill.) and incubated with T-medium containing 5% FBS for 24 h. After the cells had attached to the chamber slides, the cells were washed with PBS (Phosphate Buffered Saline) and exposed to the cyanine dye at a concentration of 20 μM in medium. The slides were incubated at 37° C. for 30 min, washed twice with PBS to remove excess dyes, and fixed with 10% formaldehyde at 4° C. The slides were then washed twice with PBS and covered with glass coverslips with aqueous mounting medium (Sigma-Aldrich, St. Louis, Mo.). Images were recorded by confocal laser microscopy (Zeiss LSM 510 META, Germany) equipped with 633 nm excitation laser and 670-810 nm long pass filter.

human bladder tumors = test: Uptake in freshly harvested human bladder tumor specimens; format: cell-based
Text: The inventors determined the ability of IR-783 as an imaging agent for freshly harvested human renal and bladder cancer specimens. […] Fresh tumor xenografts grown in mice (FIG. 35) are able to uptake the dye. […] The nature of this uptake at this time is not clear.

normal human cells = test: Uptake of NIR dyes by cultured normal human cells; format: cell-based; details: HS-27A/BMC, NPE, NPF, HUVEC-CS, HEK293; 20 μM dye, 30 min
Description: as §2, §3

[3] = system: TRAMP mouse prostate tumors; test: Detection of spontaneous prostate tumors in TRAMP transgenic mice; format: in vivo
Description: The uptake of cyanine dyes by the TRAMP mouse prostate model and the Apc^Min/+ mouse-adenoma model (obtained from The Jackson Laboratory, Bar Harbor, Me.) was assessed by a similar protocol as described above. We also utilized the Olympus OV100 imaging system to detect adenoma in the Apc^Min/+ mouse model. In brief, mice were injected intraperitoneally with IR-783 dye at a dose of 10 nmol/20 g body weight and animals were subjected to total body cyanine dye imaging as described above. Animals were sacrificed at 48 hrs after dye administration and tumors were dissected and subjected to NIR imaging. The presence of tumor cells in tissue specimens was confirmed by histopathologic analysis.

[4] = for body weight: daily intraperitoneal injection, Balb/c mice
Description: In control mice, the same volume of PBS was injected. The body weight and lethality of these mice were closely followed for 28 days.

ARCaPM cells = test: Subcellular co-localization with mitochondria and lysosome tracking dyes; format: cell-based, human; details: Mito Tracker and Lyso Tracker co-staining
Description: as §1, with “Imaging of mitochondrial and/or lysosome localization of the cyanine dye was conducted under confocal microscopy (24).” left out

2-[2-[2-Chloro-3-[2-[1,3-dihydro-3,3-dimethyl-1-(4-sulfobutyl)-2H-indol-2-ylidene]-ethylidene]-1-cyclohexen-1-yl]-ethenyl]-3,3-dimethyl-1-(4-sulfobutyl)-3H-indolium [IR-783]
flow cytometry discrimination of stained cancer cells [1]: totally identified from normal lymphocytes
visualization of cancer cells in blood under NIR imaging [1]: clearly visualized
uptake of dye by mouse pancreatic cancer cell lines [2]: taken up by other malignant cells from both human and mouse; also recorded: significant uptake
uptake of dye in P69 cells (P69 cells; confocal imaging, 630×): not in normal human prostate epithelial P69 cells
plateau of uptake and retention compared with ARCaP cells (P69 cells; control P69 cells): much lower plateau
start of uptake and retention (P69 cells; control P69 cells): 12 min
subcellular localization of the dye (renal cancer cells): co-localization with mitochondrial and lysosome organelles
uptake of dye by human bladder cancer cell lines (human cancer cells): strong uptake
uptake of dye by human pancreatic cancer cell lines (human cancer cells): strong uptake
dye uptake into cancer cells at 0° C. (human cancer cells; 0° C., data not shown): no dye uptake and none
dye uptake into cancer cells at 37° C. (human cancer cells; 37° C., data not shown): high
uptake of dye by human renal cancer cells (human cancer cells; SN12C, ACHN, Caki-1, 20 μM dye, 30 min): significant uptake; also recorded: actively taking up
uptake of dye by human cancer cell lines in culture (human cancer cells; panel of prostate, breast, cervical, lung, liver, pancreatic, renal, bladder and leukemia lines, 20 μM dye, 30 min, confocal microscope): preferentially taken up and retained by cancer but not normal cells; also recorded: a wide range of cancer cells but not normal cells were taking up these dyes; also recorded: retained in cancerous cells of human origin; also recorded: significant uptake
dye uptake in normal tissue (human bladder tumors; freshly harvested bladder specimens): to a much lesser extent by normal tissue
dye uptake by fat cells and tissues (human bladder tumors; freshly harvested specimens): can also be taken up by fatty tissues; also recorded: also taken up by fat cells and tissues
dye uptake in human bladder tumor tissue (human bladder tumors; freshly harvested specimens): can be taken up; also recorded: taken up by tumor tissues
uptake of dye by normal human cells in culture (normal human cells): unable to be taken up by normal cells; also recorded: not to accumulate; also recorded: not taken up; also recorded: low uptake; also recorded: very low uptake
detection of / dye uptake by TRAMP prostate tumors ([3]; TRAMP mice, IR-783 i.p. 10 nmol/20 g): accumulate in prostate tumors and their metastases; also recorded: could detect tumor; also recorded: active uptake; also recorded: only tumor-positive signal
NIR fluorescence of tumor specimen after formalin fixation ([3]; TRAMP tumor, formalin solution for 3 weeks): retain heptamethine cyanine NIR fluorescence; also recorded: strong NIR signal
body weight ([4]; 0 day, 1X imaging dose): 20.29 g
body weight ([4]; 0 day, 10X imaging dose): 20.57 g
body weight ([4]; 0 day, 100X imaging dose): 19.85 g
lethality in treated mice ([4]; 100× imaging dose, 28 days): no lethality
body weight ([4]; 1 day, 1X imaging dose): 20.20 g
body weight ([4]; 1 day, 10X imaging dose): 20.61 g
body weight ([4]; 1 day, 100X imaging dose): 19.74 g
body weight ([4]; 2 day, 1X imaging dose): 20.23 g
body weight ([4]; 2 day, 10X imaging dose): 20.59 g
body weight ([4]; 2 day, 100X imaging dose): 20.01 g
body weight ([4]; 3 day, 1X imaging dose): 20.32 g
body weight ([4]; 3 day, 10X imaging dose): 20.98 g
body weight ([4]; 3 day, 100X imaging dose): 20.39 g
body weight ([4]; 4 day, 1X imaging dose): 20.34 g
body weight ([4]; 4 day, 10X imaging dose): 21.02 g
body weight ([4]; 4 day, 100X imaging dose): 20.43 g
body weight ([4]; 5 day, 1X imaging dose): 21.00 g
body weight ([4]; 5 day, 10X imaging dose): 21.34 g
body weight ([4]; 5 day, 100X imaging dose): 21.01 g
body weight ([4]; 6 day, 1X imaging dose): 21.87 g
body weight ([4]; 6 day, 10X imaging dose): 21.76 g
body weight ([4]; 6 day, 100X imaging dose): 21.23 g
body weight ([4]; 7 day, 1X imaging dose): 22.32 g
body weight ([4]; 7 day, 10X imaging dose): 22.54 g
body weight ([4]; 7 day, 100X imaging dose): 22.00 g
body weight ([4]; 14 day, 1X imaging dose): 23.91 g
body weight ([4]; 14 day, 10X imaging dose): 24.01 g
body weight ([4]; 14 day, 100X imaging dose): 23.76 g
body weight ([4]; 28 day, 1X imaging dose): 24.86 g
body weight ([4]; 28 day, 10X imaging dose): 24.87 g
body weight ([4]; 28 day, 100X imaging dose): 24.61 g
subcellular localization of the dye (ARCaPM cells): condense on mitochondrial and lysosomal organelles; also recorded: a large portion of the IR-783 was co-localized with these subcellular organelles

From patent publication US20170314056A1, “METHOD OF USING NEAR INFRARED FLUORESCENT DYES FOR IMAGING AND TARGETING CANCERS” (priority 2010, published 2017)
